{
  "source": "ChEMBL document CHEMBL5725355",
  "about": "“Methods for treating seizure disorders and pain” (2017)",
  "key": {"[1]": {"test": "(§1) Voltage-Clamp Assay: All experiments were conducted at room temperature (22-24° C.) with an EPC-10 amplifier and Pulse software (HEKA, Lambrecht/Pfalz, Germany) in the whole-cell mode of the patch-clamp technique. Human embryonic kidney (HEK)-293 cell lines stably expressing hNav1.1, hNav1.5, hNav1.7 channels (generously provided by Dr. Christopher Lossin, University of California Davis), hNav1.4 (Frank Lehmann-Horn, University of Ulm), or hKv2.1 channels (James Trimmer, University of California Davis) were bathed in extracellular solution containing (in mM): 160 NaCl; 4.5 KCl; 1 MgCl2; 2 CaCl2; 10 HEPES [pH was adjusted to 7.4 using NaOH (310 mOsm)]. Pipettes were filled with intracellular solution containing (in mM): 145 KF; 2 MgCl2; 10 ethylene glycol tetraacetic acid; 10 HEPES (pH adjusted to 7.2 with KOH; 300 mOsm). Neuroblastoma N1E-115 cells (ATCC, Manassa, Va., USA) expressing Nav1.2 were patched with a CsF internal solution consisting of (in mM): 10 NaF; 110 CsF; 20 CsCl; 2 ethylene glycol tetraacetic acid; 10 HEPES (CsOH to pH 7.35; 300 mOsm). All pipette tip resistances were 2-4 MΩ. Series resistances of 3-10 MΩ were compensated 40-80%. All cells were voltage-clamped to a holding potential of −90 mV unless otherwise specified. The sampling frequency was 5 kHz. Na+ currents were elicited by 30-ms pulse to 0 mV from −90 mV applied every 10 s. […]"}, "[2]": {"test": "as §1", "remark": "listed apart in the source"}, "[3]": {"test": "as §1", "remark": "listed apart in the source"}, "[4]": {"test": "as §1", "remark": "listed apart in the source"}, "[5]": {"test": "as §1", "remark": "listed apart in the source"}, "[6]": {"test": "as §1", "remark": "listed apart in the source"}},
  "data": [
    {"molecule": "Nc1nc2ccc(SC(F)(F)F)cc2s1", "values": [
      {"measurement": "EC50", "setting": "[1]", "result": 7.9, "unit": "µM"},
      {"measurement": "EC50", "setting": "[2]", "result": 2.2, "unit": "µM"},
      {"measurement": "EC50", "setting": "[3]", "result": 22.3, "unit": "µM"},
      {"measurement": "EC50", "setting": "[4]", "result": 5.8, "unit": "µM"},
      {"measurement": "EC50", "setting": "[5]", "result": 6.9, "unit": "µM"},
      {"measurement": "EC50", "setting": "[6]", "result": 4.5, "unit": "µM"}
    ]}
  ]
}
